Assays:
[1] = Stability in PBS at 37 °C (radio-HPLC / LC-MS); format: physicochemical; details: for Stability (% ± SD) PBS 1 h / Stability (% ± SD) PBS 4 h / Stability (% ± SD) PBS 24 h: % intact labeled ligand, 37 °C; for degradation: up to 24 h of incubation
Experimental: (§1) For the stability assessment of eFAP-6, [^111In]In-eFAP-6 or [^177Lu]Lu-eFAP-6 (~ 3–7 MBq, 20 µL) was mixed with 180 µL of PBS (0.01 M, pH 7.4) and incubated at 37 °C for up to 24 h. A sample of the PBS solution was directly injected on the radio-HPLC at 1, 4, and 24 h after incubation. Additionally, [^111In]In-eFAP-6 and [^177Lu]Lu-eFAP-6 (5–15 MBq, 50 µL) were incubated with 350 µL of commercially acquired mouse or human serum (Biolegend; San Diego, CA, USA) at 37 °C for up to 24 h. Following 1, 4, and 24 h of incubation, 50 µL of the solution were mixed with 50 µL of acetonitrile in an Eppendorf tube, and centrifuged at 5000× g for 20 min. The supernatant was then analyzed by radio-HPLC. Stability studies of eFAP-7 were performed by incubation of eFAP-7 (50 µL, 10^− 4 M) in 450 µL PBS or serum at 37 °C for up to 24 h. After 1, 4, and 24 h of incubation, 50 µL of the PBS incubation solution were directly analyzed by liquid chromatography-mass spectrometry (LC-MS), while 50 µL of the serum solution was mixed with 50 µL of acetonitrile in an Eppendorf tube, and centrifuged at 5000× g for 20 min, followed by LC-MS analyses.

[2] = Stability in mouse serum at 37 °C (radio-HPLC / LC-MS); format: in vitro ADME; details: for Stability (% ± SD) Mouse serum 1 h / Stability (% ± SD) Mouse serum 4 h / Stability (% ± SD) Mouse serum 24 h: % intact labeled ligand, 37 °C; for degradation: mouse serum (MS), up to 24 h of incubation
Experimental: as §1

[3] = Stability in human serum at 37 °C (radio-HPLC / LC-MS); format: in vitro ADME; details: for Stability (% ± SD) Human serum 1 h / Stability (% ± SD) Human serum 4 h / Stability (% ± SD) Human serum 24 h: % intact labeled ligand, 37 °C; for degradation: human serum (HS), up to 24 h of incubation
Experimental: as §1

[4] = LogD7.4 shake-flask method (n-octanol/PBS); format: physicochemical; details: n-octanol/PBS pH 7.4, shake-flask
Experimental: The distribution coefficients (LogD7.4) were determined using a shake-flask method, in which 2 µL (~ 0.5 MBq) of [^111In]In-eFAP-6 or 10 µL of eFAP-7 (10^− 4 M) was added to an Eppendorf tube containing 1 mL of PBS (0.01 M, pH 7.4) and n-octanol (v/v, 1:1). After vigorous vortexing, the solution was centrifuged at 2500× g for 15 min for phase separation. For radiolabeled eFAP-6, samples (3 × 10 µL) of the octanol and aqueous phases were taken out and measured in a 1480 Wizard automatic γ-counter (PerkinElmer; Groningen, The Netherlands). LogD7.4 values were calculated by using the following equation: LogD7.4 = log [(counts in octanol phase)/(counts in aqueous phase)]. For eFAP-7, samples (50 µL) of the octanol and aqueous phases were taken out and measured by LC-MS. LogD7.4 values were calculated by using the following equation: LogD7.4 = log [(area in octanol phase)/(area in aqueous phase)].

[5] = test system: HT1080-huFAP cells; assay: Radiotracer uptake assay in FAP-expressing cells; format: cell-based, human
Experimental: Cell experiments were performed with the human sarcoma HT1080 cell line, stably transduced with human FAP (HT1080-huFAP) which were kindly provided by Prof. Dr. Uwe Haberkorn from the University of Heidelberg. The wild type HT1080 (ATTC), hereafter HT080-WT, was used as a negative control. Additionally, the pancreatic stellate cells PS-1, obtained from Queen Mary University, were used as an endogenously FAP expressing cell line. HT1080-huFAP and HT1080-WT cells were cultured in DMEM Glutamax© (Gibco; Breda, The Netherlands) and the PS-1 cells were cultured in RPMI (Gibco). Both media were supplemented with 10% FBS (Gibco), 100 UI/mL penicillin, and 100 µg/mL streptomycin (Merck Life Science NV; Amsterdam, The Netherlands). All cell lines were regularly passaged at 80% confluence and cultured at 37 °C, 5% CO2.
In vitro displacement studies of eFAP-6 and eFAP-7, as well as specificity and uptake assays, were performed using HT0180-huFAP cells. One day prior to the assay 100,000 cells were seeded in a 12-well plate in triplicate. […] For the uptake assay, the cells were incubated with 1 nM [^111In]In-eFAP-6 or [^111In]In-FAPI-46 for different time points (5–120 min) in the presence and absence of 1 mM UAMC-1110 to determine the specificity of^111 radiotracer binding. In both assays, the cells were washed twice with PBS after incubation and were subsequently lysed using 1 M NaOH for 20 min. The cell lysates were collected and radioactivity was measured in a γ-counter (PerkinElmer), simultaneously with 100 µL of the radioactive incubation medium as a standard. Cells in separate wells were collected with Trypsin-EDTA (Gibco) for counting by the automated Countess II cell counter (Thermo Fisher Scientific; Bleiswijk, The Netherlands). Uptake was expressed as percentage added activity per 200,000 cells (% AA/200,000 cells), and specific uptake was corrected by subtracting the uptake measured in the block wells.

[6] = test system: HT1080-huFAP and HT1080-WT tumor-bearing mice; assay: Ex vivo biodistribution study in tumor-bearing mice; details: for Biodistribution Bone: femur; for Biodistribution Bone / Biodistribution Blood / Biodistribution Cecum / Biodistribution Colon / Biodistribution Heart / Biodistribution Kidneys / Biodistribution Liver / Biodistribution Lungs / Biodistribution Muscle / Biodistribution Pancreas / Biodistribution Salivary glands / Biodistribution Small intestines / Biodistribution Stomach / Biodistribution Tumor HT1080-WT / Biodistribution Tumor HT1080-huFAP: i.v., 2.6 MBq/200 pmol; for Biodistribution GI Tract: stomach, small intestines, cecum and colon combined
Excerpt: All animal experiments were approved by the Erasmus MC Animal Welfare Committee and were in accordance with European law. Five-week-old male NMRI-Foxn1 nu/nu mice (Janvier; Le Genest-Saint-Isle, France) were housed in individually ventilated cages with a maximum of three mice per cage. After one week of acclimatization, mice were subcutaneously inoculated with HT1080-huFAP on the right shoulder and HT1080-WT on the left shoulder (2.5 × 10^6 cells in Hank’s Balanced Salt Solution (Gibco)). Tumors were allowed to grow for 10 days, resulting in tumor sizes of 537 ± 269 mm^3 and 305 ± 190 mm^3 for HT1080-huFAP and HT1080-WT, respectively, at the start of the experiment. The animals received 200 µL of [^177Lu]Lu-eFAP-6 (n=3/4 per group) or [^177Lu]Lu-FAPI-46 (n=3/4 per group) (2.6 MBq/200 pmol) by intravenous injection through the tail vein, andat 1, 4, and 24 h p.i. biodistribution studies were performed. Blood was collected by orbital puncture under isoflurane/O2 anesthesia, immediately followed by cervical dislocation. Hereafter the two tumor xenografts, pancreas, liver, GI-tract (stomach, small intestine, cecum, colon), kidneys (left and right), lungs, heart, salivary glands, muscle, and bone (femur), were collected, weighed, and measured in a y-counter (PerkinElmer), alongside 10 µL of the injected activity as standard. The results are expressed as the percentage injected dose per gram (% ID/g).
All statistical analyses were performed with GraphPad Prism version 9.0 (San Diego, California USA). All IC50 values were determined using a non-linear regression Log(inhibitor) vs. response analysis with variable slope (four parameters). For the in vivo results outliers were identified by a ROUT test (Q = 1%) and excluded. Next, a two-tailed student’s t-test was performed (*p < 0.05, **p < 0.01, ***p < 0.001). All experiments were performed in triplicate and repeated at least three times.

N#C[C@@H]1CC(F)(F)CN1C(=O)CNC(=O)c1ccnc2c(OCCCNC(=O)CN3CCN(CC(=O)[O-])CCN(CC(=O)[O-])CCN(CC(=O)[O-])CC3)cccc12.[111In+3] [[^111In]In-eFAP-6]
Stability (% ± SD) PBS 1 h [1]: 93.2 ± 0.5%
Stability (% ± SD) PBS 4 h [1]: 93.1 ± 0.6%
Stability (% ± SD) PBS 24 h [1]: 92.3 ± 0.6%
degradation [1]: less than 10%
Stability (% ± SD) Mouse serum 1 h [2]: 92.1 ± 1.2%
Stability (% ± SD) Mouse serum 4 h [2]: 92.1 ± 1.4%
Stability (% ± SD) Mouse serum 24 h [2]: 91.0 ± 0.9%
degradation [2]: less than 10%
Stability (% ± SD) Human serum 1 h [3]: 91.2 ± 0.1%
Stability (% ± SD) Human serum 4 h [3]: 91.3 ± 0.7%
Stability (% ± SD) Human serum 24 h [3]: 90.4 ± 0.8%
degradation [3]: less than 10%
LogD7.4 [4]: -3.90 ± 0.03
incubation time at peak uptake ([5]; 1 nM radiotracer, 5–120 min): 15 min
peak uptake ([5]; 1 nM radiotracer, 5–120 min): 20.8 % AA/200,000 cells
uptake on co-incubation with an excess of UAMC-1110 (block) ([5]; 1 mM UAMC-1110, 45 min): negligible uptake

N#C[C@@H]1CC(F)(F)CN1C(=O)CNC(=O)c1ccnc2c(OCCCNC(=O)CN3CCN(CC(=O)[O-])CCN(CC(=O)[O-])CCN(CC(=O)[O-])CC3)cccc12.[177Lu+3] [[^177Lu]Lu-eFAP-6]
Stability (% ± SD) PBS 1 h [1]: 97.6 ± 1.1%
Stability (% ± SD) PBS 4 h [1]: 97.3 ± 0.4%
Stability (% ± SD) PBS 24 h [1]: 94.9 ± 0.6%
degradation [1]: less than 5%
Stability (% ± SD) Mouse serum 1 h [2]: 99.3 ± 1.2%
Stability (% ± SD) Mouse serum 4 h [2]: 99.5 ± 0.5%
Stability (% ± SD) Mouse serum 24 h [2]: 98.1 ± 0.4%
degradation [2]: less than 5%
Stability (% ± SD) Human serum 1 h [3]: 99.5 ± 0.0%
Stability (% ± SD) Human serum 4 h [3]: 99.5 ± 0.0%
Stability (% ± SD) Human serum 24 h [3]: 98.1 ± 0.3%
degradation [3]: less than 5%
Biodistribution Bone ([6]; 1 h p.i.): 1,80 ± 0,44 %ID/g
Biodistribution Blood ([6]; 1 h p.i.): 0,38 ± 0,08 %ID/g
Biodistribution Cecum ([6]; 1 h p.i.): 0,36 ± 0,01 %ID/g
Biodistribution Colon ([6]; 1 h p.i.): 0,19 ± 0,05 %ID/g
Biodistribution Heart ([6]; 1 h p.i.): 0,15 ± 0,04 %ID/g
Biodistribution Kidneys ([6]; 1 h p.i.): 2,46 ± 0,83 %ID/g
Biodistribution Liver ([6]; 1 h p.i.): 2,32 ± 0,43 %ID/g
Biodistribution Lungs ([6]; 1 h p.i.): 0,33 ± 0,08 %ID/g
Biodistribution Muscle ([6]; 1 h p.i.): 0,19 ± 0,03 %ID/g
Biodistribution Pancreas ([6]; 1 h p.i.): 0,25 ± 0,02 %ID/g
Biodistribution Salivary glands ([6]; 1 h p.i.): 0,56 ± 0,08 %ID/g
Biodistribution Small intestines ([6]; 1 h p.i.): 0,33 ± 0,34 %ID/g
Biodistribution Stomach ([6]; 1 h p.i.): 0,33 ± 0,32 %ID/g
Biodistribution Tumor HT1080-WT ([6]; 1 h p.i.): 0,50 ± 0,11 %ID/g
Biodistribution Tumor HT1080-huFAP ([6]; 1 h p.i.): 6,44 ± 1,09 %ID/g
Biodistribution Bone ([6]; 4 h p.i.): 1,27 ± 0,24 %ID/g
Biodistribution Blood ([6]; 4 h p.i.): 0,22 ± 0,07 %ID/g
Biodistribution Cecum ([6]; 4 h p.i.): 0,32 ± 0,08 %ID/g
Biodistribution Colon ([6]; 4 h p.i.): 0,14 ± 0,03 %ID/g
Biodistribution Heart ([6]; 4 h p.i.): 0,10 ± 0,03 %ID/g
Biodistribution Kidneys ([6]; 4 h p.i.): 1,11 ± 0,21 %ID/g
Biodistribution Liver ([6]; 4 h p.i.): 2,87 ± 1,18 %ID/g
Biodistribution Lungs ([6]; 4 h p.i.): 0,15 ± 0,03 %ID/g
Biodistribution Muscle ([6]; 4 h p.i.): 0,16 ± 0,06 %ID/g
Biodistribution Pancreas ([6]; 4 h p.i.): 0,18 ± 0,06 %ID/g
Biodistribution Salivary glands ([6]; 4 h p.i.): 0,41 ± 0,14 %ID/g
Biodistribution Small intestines ([6]; 4 h p.i.): 0,12 ± 0,04 %ID/g
Biodistribution Stomach ([6]; 4 h p.i.): 0,11 ± 0,04 %ID/g
Biodistribution Tumor HT1080-WT ([6]; 4 h p.i.): 0,36 ± 0,11 %ID/g
Biodistribution Tumor HT1080-huFAP ([6]; 4 h p.i.): 5,92 ± 1,63 %ID/g
Biodistribution GI Tract ([6]; 4 h p.i.): 0,17 ± 0,05 %ID/g
Biodistribution Bone ([6]; 24 h p.i.): 0,19 ± 0,01 %ID/g
Biodistribution Blood ([6]; 24 h p.i.): 0,01 ± 0,00 %ID/g
Biodistribution Cecum ([6]; 24 h p.i.): 0,03 ± 0,00 %ID/g
Biodistribution Colon ([6]; 24 h p.i.): 0,02 ± 0,01 %ID/g
Biodistribution Heart ([6]; 24 h p.i.): 0,01 ± 0,00 %ID/g
Biodistribution Liver ([6]; 24 h p.i.): 1,67 ± 1,07 %ID/g
Biodistribution Lungs ([6]; 24 h p.i.): 0,01 ± 0,00 %ID/g
Biodistribution Muscle ([6]; 24 h p.i.): 0,01 ± 0,00 %ID/g
Biodistribution Pancreas ([6]; 24 h p.i.): 0,01 ± 0,00 %ID/g
Biodistribution Salivary glands ([6]; 24 h p.i.): 0,02 ± 0,00 %ID/g
Biodistribution Small intestines ([6]; 24 h p.i.): 0,02 ± 0,00 %ID/g
Biodistribution Stomach ([6]; 24 h p.i.): 0,02 ± 0,01 %ID/g
Biodistribution Tumor HT1080-WT ([6]; 24 h p.i.): 0,06 ± 0,01 %ID/g
Biodistribution GI Tract ([6]; 24 h p.i.): 0,02 ± 0,00 %ID/g
